Data taken from article PMC9224512, “New Insights into the Determinants of Specificity in Human Type I Arginase: Generation of a Mutant That Is Only Active with Agmatine as Substrate” (International Journal of Molecular Sciences, 2022).
Numbering of substitutions follows the chain as printed.

Columns and labels:
[1] = tested on: arginase N130A; parameters: method as in PMID 19093830; conditions: substrate arginine; cited from earlier work
[2] = tested on: arginase N130Y; parameters: method as in PMID 19093830; conditions: substrate arginine; cited from earlier work
[3] = target: T1, human arginase type I N130D-S137C-N139D (Homo sapiens, UniProt P05089, N130D/N139D/S137C); experiment: Kinetic and inhibition studies, triple mutant; assay type: biochemical
T1 sequence (P05089 1-322 N130D/S137C/N139D): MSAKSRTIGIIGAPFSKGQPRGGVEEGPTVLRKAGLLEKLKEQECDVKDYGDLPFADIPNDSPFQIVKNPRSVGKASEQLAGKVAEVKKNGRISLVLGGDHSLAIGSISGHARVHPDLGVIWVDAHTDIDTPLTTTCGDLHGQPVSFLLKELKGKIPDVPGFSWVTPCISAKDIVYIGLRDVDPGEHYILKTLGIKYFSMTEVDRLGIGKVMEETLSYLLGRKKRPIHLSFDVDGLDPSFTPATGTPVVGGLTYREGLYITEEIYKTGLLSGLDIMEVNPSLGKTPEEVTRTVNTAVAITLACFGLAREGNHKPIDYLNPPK
Method: (§1) Bacterial cultures were grown with shaking at 37 °C in Luria Broth media, in the presence of ampicillin (100 μg/mL). The wild-type and mutant human liver arginase cDNAs were directionally cloned into the pBluescript II KS(+) expression vector and then expressed in E. coli JM109, following induction with 1 mM isopropyl β-D-thiogalactopyranoside. The bacterial cells were disrupted by sonication on ice (5 × 30 s pulses), centrifuged for 20 min at 12,000× g, and the obtained supernatant was precipitated with ammonium sulfate (60% saturation). The pellet, collected by centrifugation at 12,000× g for 10 min, was re-suspended in buffer 5 mM Tris–HCl (pH 7.5) containing 2 mM MnCl2 and dialyzed for 6 h at 4 °C against the same buffer. After incubation with 5 mM MnCl2 for 10 min at 60 °C, the enzyme variants were purified as previously described. The purity of the enzymes was evaluated by SDS–PAGE stained by Coomassie blue and immunodetection using an anti- rat arginase I antibody.
(§2) The single, double, triple, and chimera variants of human arginase type I were obtained by PCR, using the QuickChange site-directed mutagenesis kit (Stratagene, La Jolla, CA, USA); the plasmid pBluescript II KS(+) containing the human liver arginase cDNA was used as template. To obtain the chimeric species of human arginase type I, serial mutations were made in each loop to be modified, using as template DNA the wild-type arginase gene or the previous done mutation, subcloned in the plasmid pBluescript II KS (+). Specifically, the residues present in the arginase structure were replaced by those corresponding to the agmatinase sequence of E. coli.
(§3) All assays were initiated by adding the enzyme to a previously equilibrated buffer with the substrate in solution (the concentrations of used substrates were between 0.2–3 fold the Km). Urea was determined by a colorimetric method with α-isonitrosopropiophenone. The protein concentrations were determined by the Bradford’s method, with bovine serum albumin as standard. […]

[4] = target: T2, Chimera A1 (I129T/N130Y/T131A) of human arginase type I (Homo sapiens, UniProt P05089, I129T/N130Y/T131A); experiment: Kinetic and inhibition studies, Chimera A1; assay type: biochemical
T2 sequence (P05089 1-322 I129T/N130Y/T131A): T1 sequence (P05089 1-322 N130D/S137C/N139D) with I129T, D130Y, T131A, C137S, D139N
Method: as §1, §2
(§4) All assays were initiated by adding the enzyme to a previously equilibrated buffer with the substrate in solution (the concentrations of used substrates were between 0.2–3 fold the Km). Urea was determined by a colorimetric method with α-isonitrosopropiophenone. The protein concentrations were determined by the Bradford’s method, with bovine serum albumin as standard. Initial velocity and enzymatic inhibition experiments were performed in duplicate and repeated three times. The inhibitory patterns were initially determined by double reciprocal plots and re-plots of intercepts and slopes versus inhibitor concentrations. […] Velocities are expressed as μmol of urea/10 min.

[5] = target: T3, human arginase type I N130D (Homo sapiens, UniProt P05089, N130D); experiment: Kinetic and inhibition studies, N130D mutant; assay type: biochemical
T3 sequence (P05089 1-322 N130D): T1 sequence (P05089 1-322 N130D/S137C/N139D) with C137S, D139N
Method: as §1, §2, §4

[6] = tested on: human arginase D183N; parameters: method as in PMID 19093830; conditions: substrate arginine; cited from earlier work
[7] = target: T4, human arginase type I N130D-N139D (Homo sapiens, UniProt P05089, N130D/N139D); experiment: Kinetic and inhibition studies, N130D-N139D mutant; assay type: biochemical
T4 sequence (P05089 1-322 N130D/N139D): T1 sequence (P05089 1-322 N130D/S137C/N139D) with C137S
Method: as §1, §2, §3

[8] = target: single, double and triple mutants (N130D, S137C, N139D) of human arginase type I; experiment: Kinetic properties stated for all loop A mutants together; assay type: biochemical; conditions: all mutants of Table 1; substrate arginine; read-out: Ki for competitive inhibition by the ornithine product
Method: as §1
The single, double, triple, and chimera variants of human arginase type I were obtained by PCR, using the QuickChange site-directed mutagenesis kit (Stratagene, La Jolla, CA, USA); the plasmid pBluescript II KS(+) containing the human liver arginase cDNA was used as template. […]

[9] = substrate = labelled compound, pH 9.5, 2 mM Mn2+

SMILES: N=C(N)NCCC[C@H](N)C(=O)O [Arginine, L-arginine]
- increase of Km for arginine [1]: 50 fold
- reduction of kcat [1]: 37%
- decrease in kcat [2]: approximately 20 times
- kcat ([3]; substrate = labelled compound): 4 s⁻¹
- Km [3, 9]: 6.9 mM
- kcat ([4]; substrate = labelled compound, n/a = no activity with the substrate): 6.2 ± 0.4 s⁻¹
- Km [4, 9]: 2.5 ± 0.5 mM
- arginase activity, % of the enzymatic activity of wild-type arginase ([4]; substrate arginine): 3.5%
- decrease of catalytic constant (kcat) compared with wild-type enzyme ([4]; substrate arginine): approximately 30 times
- Km [5, 9]: 13.3 mM
- kcat [5, 9]: 33 s⁻¹
- catalytic activity relative to wild type ([5]; substrate arginine): 17%
- kcat/Km ratio, times less than wild-type enzyme ([5]; substrate arginine): 50 times
- increase in Km [6]: 27 fold
- reduction in kcat [6]: 12%
- kcat ([7]; substrate = labelled compound): 33 s⁻¹
- Km [7, 9]: 6.1 mM

SMILES: NCCC[C@H](N)C(=O)O [Ornithine, L-ornithine]
- Ki ([3]; read-out: Ki^orn): 5.4 mM
- Inhibition type ([4]; substrate arginine): Competitive
- Kis (Ki) ([4]; substrate arginine): 60 ± 2 mM
- Ki ([5]; read-out: Ki^orn): 7.8 mM
- Ki [8]: ~7 mM
- Ki ([7]; read-out: Ki^orn): 6.4 mM
